Laboratory results reported in PubChem BioAssay AID2060903 (Molecular Pharmacology Branch, DTP, NCI, 2025).

Tested on: 377384-186-R-J1-PDC complex spheroid viability
Assay: Anticancer human tumor 377384-186-R-J1-PDC patient-derived pancreatic carcinoma cell line growth inhibition [RAS]
Conditions: for viability, T/C: stronger effect = lower value; active = viability on the fitted dose curve at most 10% of control; inactive = the rest
Procedure, shortened: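 Tumour cells grown as complex spheroids with HUVEC endothelial cells and mesenchymal stem cells, treated with RAS pathway inhibitor combinations. Each agent spans half-log steps from near clinical Cmax, or 10 microM where Cmax is unknown.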
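Also: spheroids exposed to compounds for seven days before readout.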

CC1(C)CCC(Nc2ncc(C(F)(F)F)c(-c3c[nH]c4c(P(C)(C)=O)c(C#N)ccc34)n2)CN1 (stereo not drawn) + CCn1c(-c2cc(N3CCN(C)CC3)cnc2C(C)OC)c2c3cc(ccc31)-c1csc(n1)CC(NC(=O)C1CC1C)C(=O)N1CCCC(N1)C(=O)OCC(C)(C)C2
inactive: viability, T/C (second compound 0.000949 µM, first compound 0.000949 µM) 42.6% | viability, T/C (second compound 0.000949 µM, first compound 0.003 µM) 37.1% | viability, T/C (second compound 0.000949 µM, first compound 0.00949 µM) 22.9% | viability, T/C (second compound 0.000949 µM, first compound 0.03 µM) 16.4% | viability, T/C (second compound 0.000949 µM, first compound 0.0949 µM) 14.9% | viability, T/C (second compound 0.000949 µM, first compound 0.3 µM) 14% | viability, T/C (second compound 0.003 µM, first compound 0.000949 µM) 21.9% | viability, T/C (second compound 0.003 µM, first compound 0.003 µM) 16.8% | viability, T/C (second compound 0.003 µM, first compound 0.00949 µM) 10.4% | viability, T/C (second compound 0.003 µM, first compound 0.03 µM) 9.92%
< 0.949 nM: IC50 (curve of first compound, second compound 0.000949 µM) | IC50 (curve of first compound, second compound 0.003 µM) | IC50 (curve of first compound, second compound 0.00949 µM) | IC50 (curve of first compound, second compound 0.03 µM) | IC50 (curve of first compound, second compound 0.0949 µM) | IC50 (curve of first compound, second compound 0.3 µM)
active: viability, T/C (second compound 0.003 µM, first compound 0.0949 µM) 11.7% | viability, T/C (second compound 0.003 µM, first compound 0.3 µM) 8.33% | viability, T/C (second compound 0.00949 µM, first compound 0.000949 µM) 6.47% | viability, T/C (second compound 0.00949 µM, first compound 0.003 µM) 5.75% | viability, T/C (second compound 0.00949 µM, first compound 0.00949 µM) 5.48% | viability, T/C (second compound 0.00949 µM, first compound 0.03 µM) 5.23% | viability, T/C (second compound 0.00949 µM, first compound 0.0949 µM) 5.63% | viability, T/C (second compound 0.00949 µM, first compound 0.3 µM) 5.21% | viability, T/C (second compound 0.03 µM, first compound 0.000949 µM) 2.48% | viability, T/C (second compound 0.03 µM, first compound 0.003 µM) 2.69% | viability, T/C (second compound 0.03 µM, first compound 0.00949 µM) 2.99% | viability, T/C (second compound 0.03 µM, first compound 0.03 µM) 3.34% | viability, T/C (second compound 0.03 µM, first compound 0.0949 µM) 2.03% | viability, T/C (second compound 0.03 µM, first compound 0.3 µM) 1.64% | viability, T/C (second compound 0.0949 µM, first compound 0.000949 µM) 2.02% | viability, T/C (second compound 0.0949 µM, first compound 0.003 µM) 2.11% | viability, T/C (second compound 0.0949 µM, first compound 0.00949 µM) 1.57% | viability, T/C (second compound 0.0949 µM, first compound 0.03 µM) 1.95% | viability, T/C (second compound 0.0949 µM, first compound 0.0949 µM) 1.46% | viability, T/C (second compound 0.0949 µM, first compound 0.3 µM) 1.6% | viability, T/C (second compound 0.3 µM, first compound 0.000949 µM) 1.8% | viability, T/C (second compound 0.3 µM, first compound 0.003 µM) 1.64% | viability, T/C (second compound 0.3 µM, first compound 0.00949 µM) 1.69% | viability, T/C (second compound 0.3 µM, first compound 0.03 µM) 2.15% | viability, T/C (second compound 0.3 µM, first compound 0.0949 µM) 1.77% | viability, T/C (second compound 0.3 µM, first compound 0.3 µM) 1.54%

NC1c2ccccc2OC12CCN(c1cnc3c(N4CCCc5ncccc54)n[nH]c3n1)CC2 (stereo not drawn)
inactive: viability, T/C (compound 0.1 µM) 83.4% [middle of 4 runs] | viability, T/C (compound 0.316 µM) 80.6% [middle of 4 runs] | viability, T/C (compound 1 µM) 73% [middle of 4 runs] | viability, T/C (compound 3.16 µM) 76.8% [middle of 4 runs] | viability, T/C (compound 10 µM) 70% [middle of 4 runs]
> 10000 nM: IC50 (curve of compound)
